What all share (test): growth of human tumour cells (NCI), 48 h
Assay [1] has as its system RXF 393.
The test system of assay [2] is UACC-257.
For assay [3], the system named is HOP-92.
In assay [4] the test system is HCC 2998.
Assay [5] has as its system NCI-H226.
Assay [6] has as its system HL-60.
Assay [7] relates to T47D.
The test system of assay [8] is SF-295.
Assay [9] relates to EKVX.
Assay [10] has as its system NCI/ADR-RES.
The subject of assay [11] is MCF7.
Assay [12] relates to SNB-19.
For assay [13], the system named is MDA-N.
Assay [14] has as its system TK-10.
Assay [15] deals with OVCAR-8.
In assay [16] the test system is HOP-62.
Assay [17] has as its system CCRF-CEM.
The test system of assay [18] is Hs-578T.
In assay [19] the test system is LOX IMVI.
Assay [20] deals with NCI-H522.

Data on seven molecules can be found in ChEMBL document CHEMBL1201862, “PubChem BioAssay data set” (2004).

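Values below derive from 48-hour exposures of cells grown in 96-well plates, with endpoints linearly interpolated between the two concentrations bracketing the appropriate inhibition level. GI50 = concentration required for 50% inhibition of growth.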 Active and inactive are the calls of the source. Cut-off read from the data, not from the text of the source: active = GI50 up to about 1.1 µM and inactive = higher.

`CCCCCCCCCCCCCCCCCCN(C)C(COC)COP(=O)([O-])OCC[N+](C)(C)C` (stereo not given): the GI50 in [1] was 1.57 µM (inactive); in assay [2], 14.6 µM (inactive); in assay [3] it was 1.89 µM (inactive); in [4] it was 1.66 µM (inactive); in assay [5] it was 3.58 µM (inactive); in assay [6], 1.48 µM (inactive). Also, the GI50 was 18.4 µM (inactive) in assay [7]; 2.56 µM (inactive) in assay [8]; 17.5 µM (inactive) in assay [9]; 24.5 µM (inactive) in assay [10]; 10.1 µM (inactive) in [11]; 3.61 µM (inactive) in [12]. Also, the GI50 in assay [13] is 15.6 µM (inactive); in assay [14] it was 1.84 µM (inactive); in [15], 11.8 µM (inactive); in [16], 3.09 µM (inactive); in assay [17], 2.18 µM (inactive); in assay [18], 3.19 µM (inactive). In addition, the values for the GI50 in assay [19] and in assay [20] were 4.49 µM (inactive) and 2.69 µM (inactive), respectively.
Regarding `COc1cc2c(c3oc4c(O)cccc4c(=O)c13)CC(C(C)(O)CCl)O2` (stereo not given), the GI50 in assay [1] was 0.834 µM (active); in assay [2], 1.98 µM (inactive); in assay [3], 2.45 µM (inactive); in assay [4], 1.32 µM (inactive); in assay [5], 5.81 µM (inactive); in [6] it was 0.115 µM (active). The GI50 in assay [7] was 2.8 µM (inactive); in [8], 1.92 µM (inactive); in assay [9] it was 5.52 µM (inactive); in assay [10] it was 0.679 µM (active); in assay [11], 0.0254 µM (active); in assay [12], 4.85 µM (inactive). The GI50 is 0.51 µM (active) in assay [13]; 12.1 µM (inactive) in [14]; 0.219 µM (active) in [15]; 0.733 µM (active) in assay [16]; 0.0277 µM (active) in assay [17]; 2.03 µM (inactive) in [18]. In addition, the GI50 in assay [19] was < 0.01 µM (active); in [20] it was 1.73 µM (inactive).
As for `O=C1C(N2CCN(c3ccccn3)CC2)=C(Cl)C(=O)c2ncccc21`, the GI50 in [1] is 1.98 µM (inactive); in [2], 2.96 µM (inactive); in [3], 1.58 µM (inactive); in assay [4], > 4.63 µM (inactive); in assay [5], > 10 µM (inactive); in assay [6] it was 0.105 µM (active). Further, the GI50 in [7] was 2.06 µM (inactive); in assay [8] it was > 10 µM (inactive); in [9], > 10 µM (inactive); in [10], 5.22 µM (inactive); in [11] it was 1.76 µM (inactive); in [12], > 10 µM (inactive). Besides, the GI50 is 1.66 µM (inactive) in assay [13]; 3.24 µM (inactive) in [14]; > 4.45 µM (inactive) in assay [15]; > 10 µM (inactive) in [16]; 1.32 µM (inactive) in assay [17]; > 4.49 µM (inactive) in assay [18]. For the same molecule, the GI50 is 2.22 µM (inactive) in assay [19] and 0.142 µM (active) in assay [20].
Consider `CC[P+]1(c2ccccc2)[C@@H](C)CC[C@@H]1C`, for which the GI50 in assay [1] is > 100 µM (inactive); in assay [2], > 100 µM (inactive); in assay [3], 39.1 µM (inactive); in assay [4], > 100 µM (inactive); in assay [5], > 100 µM (inactive); in [6], > 100 µM (inactive). The GI50 in [7], in [8], in [9], in assay [10], in assay [11] and in assay [12] was > 100 µM (inactive) each time. For the same molecule, the GI50 in assay [13], in assay [14], in assay [15], in [16], in [17] and in assay [18] was > 100 µM (inactive) in each case. In addition, the GI50 in assay [19] and in assay [20] was > 100 µM (inactive) in each case.
With `CSC12c3cc(C)n(-c4ccc(I)cc4)c3CC(C)(C)CN1C(=O)C2Oc1ccccc1` (stereo not given), the GI50 in [1] is > 100 µM (inactive); in assay [2], > 66.5 µM (inactive); in assay [3] it was > 100 µM (inactive); in [4], > 100 µM (inactive); in [5] it was > 100 µM (inactive); in [6], 93.3 µM (inactive). For the same molecule, the GI50 is 5.97 µM (inactive) in assay [7]; > 100 µM (inactive) in assay [8]; > 67 µM (inactive) in assay [9]; > 100 µM (inactive) in [10]; 14.1 µM (inactive) in assay [11]; > 100 µM (inactive) in [12]. For the same molecule, the GI50 in [13], in assay [14], in assay [15], in [16], in [17] and in [18] was > 100 µM (inactive) each time. The GI50 in assay [19] and in assay [20] was > 100 µM (inactive) each time.
With `O=c1c(-c2c(-c3ccccc3)oc3ccc(Cl)cc3c2=O)c(-c2ccccc2)oc2ccc(Cl)cc12`, the GI50 in [1] is > 100 µM (inactive); in assay [2], > 100 µM (inactive); in assay [3] it was > 59.7 µM (inactive); in assay [4] it was > 100 µM (inactive); in assay [5], > 100 µM (inactive); in [6] it was 0.0302 µM (active). For the same molecule, the GI50 in assay [7] is > 100 µM (inactive); in assay [8], > 51.8 µM (inactive); in assay [9] it was > 43.9 µM (inactive); in [10] it was > 100 µM (inactive); in [11], > 100 µM (inactive); in assay [12] it was > 100 µM (inactive). Further, the GI50 in [13] was > 100 µM (inactive); in assay [14], > 100 µM (inactive); in assay [15], > 74.1 µM (inactive); in assay [16], > 39.7 µM (inactive); in [17], > 100 µM (inactive); in assay [18], > 49.8 µM (inactive). The GI50 is > 82.4 µM (inactive) in assay [19] and > 100 µM (inactive) in assay [20].
For `C=C(C)C1CCC2(C)C1CCC1(C)C2CCC2C3(C)C4OC(OC4=O)C(C)(C)C3CCC21C` (stereo not given), the GI50 in [1] is > 100 µM (inactive); in [2], > 100 µM (inactive); in assay [3] it was > 100 µM (inactive); in assay [4], > 100 µM (inactive); in assay [5], > 100 µM (inactive); in assay [6], 47.3 µM (inactive). For the same molecule, the GI50 is 64.6 µM (inactive) in [7]; > 100 µM (inactive) in [8]; > 100 µM (inactive) in assay [9]; > 100 µM (inactive) in assay [10]; > 100 µM (inactive) in [11]; > 100 µM (inactive) in assay [12]. Further, the GI50 in assay [13] is > 100 µM (inactive); in assay [14] it was > 100 µM (inactive); in assay [15], > 100 µM (inactive); in [16], > 100 µM (inactive); in assay [17], 80.4 µM (inactive); in assay [18], > 100 µM (inactive). Also, the figures for the GI50 in assay [19] and in assay [20] were > 100 µM (inactive) and 14.6 µM (inactive), respectively.
